Results published in PubChem BioAssay (NCI).
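96-well plates; 48 h exposure; 5 concentrations. Endpoints by linear interpolation between flanking doses. Not reached: highest tested concentration assigned. Abbreviation: GI50, concentration required for 50% inhibition of growth. TGI: total growth inhibition.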

How the values were obtained:
Test in all cases: DTP human tumour cell line panel, 48 h
NCI-H23 lung = tested on: NCI-H23 lung
IGROV1 ovarian = tested on: IGROV1 ovarian
HCT-116 colon = tested on: HCT-116 colon
NCI/ADR-RES ovarian = tested on: NCI/ADR-RES ovarian
HS 578T breast = tested on: HS 578T breast
MDA-MB-231 breast = tested on: MDA-MB-231 breast
KM12 colon = tested on: KM12 colon
HCC-2998 colon = tested on: HCC-2998 colon
SN12C renal = tested on: SN12C renal
M14 melanoma = tested on: M14 melanoma

| SMILES | GI50 (NCI-H23 lung) | TGI (NCI-H23 lung) | GI50 (IGROV1 ovarian) | TGI (IGROV1 ovarian) | GI50 (HCT-116 colon) | TGI (HCT-116 colon) | GI50 (NCI/ADR-RES ovarian) | TGI (NCI/ADR-RES ovarian) | GI50 (HS 578T breast) | TGI (HS 578T breast) | GI50 (MDA-MB-231 breast) | TGI (MDA-MB-231 breast) | GI50 (KM12 colon) | TGI (KM12 colon) | GI50 (HCC-2998 colon) | TGI (HCC-2998 colon) | GI50 (SN12C renal) | TGI (SN12C renal) | GI50 (M14 melanoma) | TGI (M14 melanoma) |
| --- | --- | --- | --- | --- | --- | --- | --- | --- | --- | --- | --- | --- | --- | --- | --- | --- | --- | --- | --- | --- |
| CN1CCN(Cc2ccc(NC(=O)c3cncc(C#Cc4c(N)ncc5ccc(C#N)cc45)c3)cc2C(F)(F)F)CC1 | 1020 nM | 3.6 µM | 816 nM | 1.99 µM | 700 nM | 1440 nM | 1110 nM | 2.63 µM | 741 nM | 9.45 µM | 525 nM | 1230 nM | 5 nM | 791 nM | 1720 nM | 5.03 µM | 2970 nM | 7.35 µM | 66.8 nM | 0.729 µM |
| CS(=O)(=O)N1CCC(n2c(=O)c(Oc3ccc(F)cc3F)cc3cnc(NC4CCOCC4)nc32)CC1 | > 25000 nM | > 25 µM | > 25000 nM | > 25 µM | > 25000 nM | > 25000 nM | > 25000 nM | > 25 µM | > 11600 nM | > 25 µM | > 25000 nM | > 25000 nM | > 25000 nM | > 25000 nM | > 25000 nM | > 25 µM | > 25000 nM | > 25 µM | > 25000 nM | > 25 µM |
| COc1cc2c3c(n(CCCN4CCNCC4)c(=O)c2cc1OC)-c1cc2c(cc1C3=O)OCO2 | 104 nM | 1.47 µM | 2030 nM | 20.7 µM | 281 nM | 2420 nM | 2770 nM | 11.5 µM | 1260 nM | 16.2 µM | 803 nM | 2230 nM | 633 nM | 2240 nM | 1150 nM | 3.98 µM | 102 nM | 0.491 µM | 1090 nM | 7.31 µM |
| CC1CCCC(C(=O)CC2CC(=O)NC(=O)C2)C1=O (centres undefined) | – | > 100 µM | – | > 100 µM | – | > 100000 nM | – | > 100 µM | – | > 100 µM | – | > 100000 nM | – | > 100000 nM | – | > 100 µM | – | > 100 µM | – | > 100 µM |
| C[C@@H](N)COc1ccc(-c2cnc3ccc(N[C@H](C)c4cccc(F)c4)nn23)cc1 | 2960 nM | 13.1 µM | 2180 nM | 6.23 µM | 1460 nM | 3070 nM | 2430 nM | 7.12 µM | 1610 nM | 3.82 µM | 1480 nM | 3190 nM | – | 1500 nM | 2010 nM | 4.97 µM | 2020 nM | 10.4 µM | 1490 nM | 3 µM |
